How the values were obtained:
[1] = molecular target: Proto-oncogene tyrosine-protein kinase receptor Ret (Homo sapiens, UniProt P07949)
Description: Inhibition of RET (unknown origin) using poly[Glu:Tyr] (4:1) as substrate after 60 mins by ELISA

[2] = Inhibition of CCDC6/RET V804M mutant (unknown origin) expressed in mouse BaF3 cells assessed as reduction in cell proliferation after 72 hrs by MTT assay; format: cell-based; details: BaF3, 72 h

Chain of Proto-oncogene tyrosine-protein kinase receptor Ret (P07949 whole entry): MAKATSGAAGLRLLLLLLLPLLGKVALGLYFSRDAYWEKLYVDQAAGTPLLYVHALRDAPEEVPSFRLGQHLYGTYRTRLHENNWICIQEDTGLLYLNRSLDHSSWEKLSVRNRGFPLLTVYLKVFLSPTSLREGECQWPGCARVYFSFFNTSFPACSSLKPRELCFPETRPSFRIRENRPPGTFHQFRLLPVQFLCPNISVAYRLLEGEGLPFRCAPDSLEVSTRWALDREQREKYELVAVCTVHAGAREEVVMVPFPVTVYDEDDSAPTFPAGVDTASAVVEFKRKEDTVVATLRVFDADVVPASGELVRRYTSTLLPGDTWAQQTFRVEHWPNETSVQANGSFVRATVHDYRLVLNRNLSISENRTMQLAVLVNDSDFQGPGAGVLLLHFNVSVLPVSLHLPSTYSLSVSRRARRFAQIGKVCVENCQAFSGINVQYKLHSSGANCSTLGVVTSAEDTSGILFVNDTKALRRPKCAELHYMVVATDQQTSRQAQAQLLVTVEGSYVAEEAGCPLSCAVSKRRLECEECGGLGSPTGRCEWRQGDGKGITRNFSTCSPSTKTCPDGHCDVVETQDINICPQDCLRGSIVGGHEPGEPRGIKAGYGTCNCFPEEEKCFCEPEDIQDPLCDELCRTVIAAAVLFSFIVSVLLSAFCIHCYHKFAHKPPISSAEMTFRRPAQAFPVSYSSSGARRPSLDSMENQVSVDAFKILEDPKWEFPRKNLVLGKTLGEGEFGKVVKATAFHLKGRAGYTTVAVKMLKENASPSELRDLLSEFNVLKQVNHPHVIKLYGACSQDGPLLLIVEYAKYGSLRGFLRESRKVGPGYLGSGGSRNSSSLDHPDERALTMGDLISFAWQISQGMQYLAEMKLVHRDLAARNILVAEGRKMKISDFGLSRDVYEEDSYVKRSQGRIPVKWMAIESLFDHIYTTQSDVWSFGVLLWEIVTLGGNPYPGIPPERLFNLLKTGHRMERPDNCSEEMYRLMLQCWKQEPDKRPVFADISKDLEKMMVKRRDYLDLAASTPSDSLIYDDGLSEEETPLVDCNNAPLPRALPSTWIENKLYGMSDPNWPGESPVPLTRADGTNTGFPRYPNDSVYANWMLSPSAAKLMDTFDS

Compound | IC50 [1] [nM] | IC50 [2] [nM]
CN1CCN(Cc2ccc(NC(=O)c3ccc(Cl)c(-c4noc(-c5ccncc5)n4)c3)cc2C(F)(F)F)CC1 | 26.6 | 
CN1CCN(Cc2ccc(NC(=O)c3ccc(Cl)c(C#Cc4cccnc4)c3)cc2C(F)(F)F)CC1 | 2.5 | 
Cc1ccc(C(=O)Nc2ccc(CN3CCN(C)CC3)c(C(F)(F)F)c2)cc1-c1noc(-c2cccnc2)n1 | 108 | 
CN1CCN(Cc2ccc(NC(=O)c3ccc(Cl)c(-c4cnc(-c5cccnc5)o4)c3)cc2C(F)(F)F)CC1 | 19.4 | 
Cc1ccc(C(=O)Nc2ccc(CN3CCN(C)CC3)c(C(F)(F)F)c2)cc1C#Cc1cnc2cccnn12 [PONATINIB] |  | 136
COc1ccc(-c2nc(-c3cc(C(=O)Nc4ccc(CN5CCN(C)CC5)c(C(F)(F)F)c4)ccc3Cl)no2)cn1 | 342 | 
CN1CCN(Cc2ccc(NC(=O)c3ccc(Cl)c(-c4nc(-c5cccnc5)co4)c3)cc2C(F)(F)F)CC1 | 21.4 | 
CN1CCN(Cc2ccc(NC(=O)c3ccc(Cl)c(-c4nc(-c5cccnc5)no4)c3)cc2C(F)(F)F)CC1 | 12.4 | 
COCCOc1cncc(-c2nc(-c3cc(C(=O)Nc4ccc(CN5CCN(C)CC5)c(C(F)(F)F)c4)ccc3Cl)no2)c1 | 11.4 | 
CN1CCN(Cc2ccc(NC(=O)c3ccc(Cl)c(-c4noc(-c5cncc(N6CCOCC6)c5)n4)c3)cc2C(F)(F)F)CC1 | 2.1 | 
CN1CCN(Cc2ccc(NC(=O)c3ccc(Cl)c(-c4noc(-c5cncc(-c6cnn(C)c6)c5)n4)c3)cc2C(F)(F)F)CC1 | 1.8 | 442
CN1CCN(Cc2ccc(NC(=O)c3cccc(-c4noc(-c5cccnc5)n4)c3)cc2C(F)(F)F)CC1 | 17.9 | 
CN1CCN(Cc2ccc(NC(=O)c3ccc(Cl)c(-c4noc(-c5cccnc5)n4)c3)cc2C(F)(F)F)CC1 | 7.3 | 
CN1CCN(Cc2ccc(NC(=O)c3ccc(Cl)c(-c4nnc(-c5cccnc5)o4)c3)cc2C(F)(F)F)CC1 | 138 | 
